Data from publication PMC9739695, “Water-Soluble Salts Based on Benzofuroxan Derivatives—Synthesis and Biological Activity” (International Journal of Molecular Sciences, 2022).
Like-named read-outs stand apart in the source and are kept apart here.

How the values were obtained:
alfalfa seeds = assay: Pre-sowing seed treatment, sowing qualities of alfalfa seeds; format: in vivo; conditions: for germination energy / laboratory germination: control 76
Experimental: (§1) When evaluating the effectiveness of treatment of wheat, alfalfa, barley, rice, and sorghum seeds as fungicidal and bactericidal agents with preparation compounds at concentrations of 10, 20, and 40 mmol, their effect on the suppression of seed infection was evaluated.
(§2) […] The sowing qualities were evaluated (germination energy for 3–4 days, laboratory germination for 7–8 days) according to GOST 12038-84 [60]. Sowing qualities of seeds were determined in wet chambers. According to the sample, 50 seeds were taken in 4-fold repetition.

barley seeds = assay: Pre-sowing seed treatment, sowing qualities of barley seeds; format: in vivo; conditions: for germination energy / laboratory germination: control 95.2
Experimental: as §1, §2

rice seeds = assay: Pre-sowing seed treatment, sowing qualities of rice seeds; format: in vivo; conditions: for germination energy: control 71.4; for laboratory germination: control 95.2
Experimental: as §1, §2

sorghum seeds = assay: Pre-sowing seed treatment, sowing qualities of sorghum seeds; format: in vivo; conditions: for germination energy: control 52.3; for laboratory germination: control 57
Experimental: as §1, §2

[1] = system: Hek 293 (human embryonic kidneys); assay: Cell viability, MTT test, normal cell line; format: cell-based; conditions: read-out: IC50 (concentration causing 50% inhibition of cell population growth)
Experimental: In this work, the cytotoxic potential of the water-soluble salts based on benzofuroxan was determined by the effect of compounds on the survival of the cell tumor origin cultures (SH-SY5Y, Hep2, A549, HeLa) using the MTT test. To understand how the synthesized compounds can influence the healthy microenvironment in the body, the effect of substances on the viability of a normal Hek 293 cell culture was additionally evaluated.
Human cell cultures of tumor origin—SH-SY5Y (neuroblastoma), HeLa (cervical tumor), Hep-2 (larynx carcinoma), A549 (adenocarcinomic human alveolar basal epithelial cells)—and normal cell line Hek 293 (human embryonic kidneys), provided by the Laboratory of Tumor Cell Genetics of the Scientific Research Institute of Carcinogenesis, N.N. Blokhin National Medical Research Center of Oncology, as well as the Institute of Cytology of the Russian Academy of Sciences, were grown in a nutrient medium DMEM (PanEco, Moscow, Russia) and MEM (PanEco, Moscow, Russia), containing fetal bovine serum (10% by volume) (ThermoFisher Scientific, Paisley, UK), Glutamax (2 mM) (Gibco, Scotland, UK), and penicillin-streptomycin (1% by volume) (PanEco, Moscow, Russia). The cultivation was carried out at 37 °C in a humidified CO2 atmosphere (5%).
Cell viability was determined by MTT test. Cells were seeded in a 96-well plate in the amount of 1 × 10^4 cells/200µLof complete nutrient medium and cultured at 37 °C in CO2 (5%). After 24 h of incubation, various concentrations of test compounds in the range from 0.1 to 100 μM, were added to the cell cultures, and then the cells were cultured under the same conditions for 24 and 72 h. For each concentration, the experiment was carried out in triplicate.
All compounds were dissolved in DMSO, then diluted with the medium to the required concentration. […] The DMSO was also added to the control wells in a volume of 1%. After the incubation time, MTT (3-(4,5-dimethylthiazol-2-yl)-2,5-diphenyltetrazolium bromide, 5 mg/mL) was added to each well and plates were additionally incubated for 2 h (until the characteristic color appeared).
Using a plate analyzer (Cytation3, BioTech Instruments Inc., Winooski, VT, USA), the optical density was determined at 530 nm. The concentration value causing 50% inhibition of cell population growth (IC50) was determined from dose-dependent curves.

[2] = Acute toxicity, single intraperitoneal administration; format: in vivo; conditions: male, BDF1 [DBA2 × C57Bl6] hybrid, mouse, in vivo, ip, BDF1 mice, single intraperitoneal administration
Experimental: (§3) To determine LD50, a curve of increasing toxicity was built with increasing dose, based on which the following parameters were additionally determined: MTD, LD16, LD84 and LD100.
(§4) In the experiment, clinically healthy animals were used, which were kept in the same conditions with a 12-h light and free access to water and food. Each experimental group included six animals. […] Control animals received 0.9% NaCl solution. Animals were monitored continuously for 4 h on the first day after administration of the test compounds. […] Calculation of toxic doses was performed using probit analysis.

BDF1 mice = assay: as above; format: in vivo
Experimental: as §3, §4

[3] = single intraperitoneal administration, doses given in mg/kg, probit analysis

## CN(C)CCCNc1c([N+](=O)[O-])c(Cl)cc2c1no[n+]2[O-].Cl [4g, 6-chloro-4-(3-(dimethylammonio)propylamino)-5-nitrobenzo[c][1,2,5]oxadiazole 1-oxide chloride]
Alfalfa seeds; 10 mmol
  germination energy: 56.6%
  laboratory germination: 60%
Alfalfa seeds; 20 mmol
  germination energy: 43.3%
  laboratory germination: 63.3%
Alfalfa seeds; 40 mmol
  sowing qualities of seeds compared with control: higher than controls
  germination energy: 80%
  laboratory germination: 80%
Barley seeds; 10 mmol
  germination energy: 52.3%
  laboratory germination: 52.3%
Barley seeds; 20 mmol
  sowing qualities of seeds compared with control: higher than control
  germination energy: 100%
  laboratory germination: 100%
Barley seeds; 40 mmol
  sowing qualities of seeds compared with control: higher than control
  germination energy: 100%
  laboratory germination: 100%
Rice seeds; 10 mmol
  germination energy: 38%
  laboratory germination: 47.6%
Rice seeds; 20 mmol
  germination energy: 71.4%
  laboratory germination: 100%
Rice seeds; 40 mmol
  sowing qualities of seeds compared with control: at the control level
  germination energy: 76.1%
  laboratory germination: 95.2%
Sorghum seeds; 10 mmol
  germination energy: 36.6%
  laboratory germination: 50%
Sorghum seeds; 20 mmol
  sowing qualities of seeds compared with control: higher than in the control
  germination energy: 61.9%
  laboratory germination: 71.4%
Sorghum seeds; 40 mmol
  sowing qualities of seeds compared with control: higher than in the control
  germination energy: 57.2%
  laboratory germination: 80.9%
[1]; HEK293, 24 h
  IC50: 21.9 ± 0.39 µM
[1]; HEK293, 72 h
  IC50: 12 ± 1.12 µM
[2]; doses given in mg/kg
  MTD at 14 days: 5 mg/kg
[2]; probit analysis
  LD50 at 14 days: 13.8 ± 1.73 mg/kg
BDF1 mice; single i.p.
  toxicity class from acute toxicity study: highly toxic
BDF1 mice; single i.p. 5 mg/kg, 0 Day, control 21.55 ± 0.28
  Body Weight: 21.88 ± 0.45 g
BDF1 mice; single i.p. 5 mg/kg, 1 Day, control 21.43 ± 0.56
  Body Weight: 21.59 ± 0.55 g
BDF1 mice; single i.p. 5 mg/kg, 2 Days, control 21.67 ± 0.77
  Body Weight: 21.64 ± 0.71 g
BDF1 mice; single i.p. 5 mg/kg, 3 Days, control 21.99 ± 0.79
  Body Weight: 21.72 ± 0.79 g
BDF1 mice; single i.p. 5 mg/kg, 7 Days, control 22.80 ± 0.44
  Body Weight: 22.12 ± 0.75 g
BDF1 mice; single i.p. 5 mg/kg, 14 Days, control 23.96 ± 0.68
  Body Weight: 23.19 ± 1.21 g
BDF1 mice; single i.p. 10 mg/kg, 0 Day, control 21.55 ± 0.28
  Body Weight: 21.99 ± 0.21 g
BDF1 mice; single i.p. 10 mg/kg, 1 Day, control 21.43 ± 0.56
  Body Weight: 21.54 ± 0.41 g
BDF1 mice; single i.p. 10 mg/kg, 2 Days, control 21.67 ± 0.77
  Body Weight: 21.60 ± 0.52 g
BDF1 mice; single i.p. 10 mg/kg, 3 Days, control 21.99 ± 0.79
  Body Weight: 21.86 ± 0.66 g
BDF1 mice; single i.p. 10 mg/kg, 7 Days, control 22.80 ± 0.44
  Body Weight: 22.84 ± 1.06 g
BDF1 mice; single i.p. 10 mg/kg, 14 Days, control 23.96 ± 0.68
  Body Weight: 23.70 ± 1.12 g
BDF1 mice; single i.p. 15 mg/kg, 0 Day, control 21.55 ± 0.28
  Body Weight: 21.86 ± 0.57 g
BDF1 mice; single i.p. 15 mg/kg, 1 Day, control 21.43 ± 0.56
  Body Weight: 21.36 ± 2.51 g
BDF1 mice; single i.p. 15 mg/kg, 2 Days, control 21.67 ± 0.77
  Body Weight: 21.60 ± 2.43 g
BDF1 mice; single i.p. 15 mg/kg, 3 Days, control 21.99 ± 0.79
  Body Weight: 22.11 ± 3.03 g
BDF1 mice; single i.p. 15 mg/kg, 7 Days, control 22.80 ± 0.44
  Body Weight: 22.41 ± 2.74 g
BDF1 mice; single i.p. 15 mg/kg, 14 Days, control 23.96 ± 0.68
  Body Weight: 23.15 ± 2.14 g
BDF1 mice; single i.p. 20 mg/kg, 0 Day, control 21.55 ± 0.28
  Body Weight: 22.37 ± 0.80 g
BDF1 mice; single i.p. 20 mg/kg, 1 Day, control 21.43 ± 0.56
  Body Weight: 21.99 ± 3.09 g
BDF1 mice; single i.p. 20 mg/kg, 2 Days, control 21.67 ± 0.77
  Body Weight: 21.77 ± 3.79 g
BDF1 mice; single i.p. 20 mg/kg, 3 Days, control 21.99 ± 0.79
  Body Weight: 21.85 ± 3.18 g
BDF1 mice; single i.p. 20 mg/kg, 7 Days, control 22.80 ± 0.44
  Body Weight: 22.81 ± 3.89 g
BDF1 mice; single i.p. 20 mg/kg, 14 Days, control 23.96 ± 0.68
  Body Weight: 23.41 ± 3.01 g
BDF1 mice; single i.p. 25 mg/kg, 0 Day, control 21.55 ± 0.28
  Body Weight: 21.87 ± 0.74 g
BDF1 mice; single i.p., doses of 10–25 mg/kg
  time after administration at which death of animals began: 5 to 30 min
BDF1 mice; single intraperitoneal administration, doses given in mg/kg
  LD100: 25
BDF1 mice; [3]
  LD16: 9.4
  LD84: 20.3
